Assay results taken from ChEMBL document CHEMBL3217435, “Unfolded and macrocyclic ammonium derivatives of diterpenoids steviol and isosteviol having choline moieties. Synthesis and inhibitory activities toward acetylcholine- and butyrylcholinesterases” (Medchemcomm, 2012).

How the values were obtained:
Acetylcholinesterase = Acetylcholinesterase (Homo sapiens, UniProt P22303); experiment: Inhibition of human erythrocyte AChE using acetylthiocholine iodide as substrate by visible spectrophotometry
Acetylcholinesterase, sequence (P22303 whole entry): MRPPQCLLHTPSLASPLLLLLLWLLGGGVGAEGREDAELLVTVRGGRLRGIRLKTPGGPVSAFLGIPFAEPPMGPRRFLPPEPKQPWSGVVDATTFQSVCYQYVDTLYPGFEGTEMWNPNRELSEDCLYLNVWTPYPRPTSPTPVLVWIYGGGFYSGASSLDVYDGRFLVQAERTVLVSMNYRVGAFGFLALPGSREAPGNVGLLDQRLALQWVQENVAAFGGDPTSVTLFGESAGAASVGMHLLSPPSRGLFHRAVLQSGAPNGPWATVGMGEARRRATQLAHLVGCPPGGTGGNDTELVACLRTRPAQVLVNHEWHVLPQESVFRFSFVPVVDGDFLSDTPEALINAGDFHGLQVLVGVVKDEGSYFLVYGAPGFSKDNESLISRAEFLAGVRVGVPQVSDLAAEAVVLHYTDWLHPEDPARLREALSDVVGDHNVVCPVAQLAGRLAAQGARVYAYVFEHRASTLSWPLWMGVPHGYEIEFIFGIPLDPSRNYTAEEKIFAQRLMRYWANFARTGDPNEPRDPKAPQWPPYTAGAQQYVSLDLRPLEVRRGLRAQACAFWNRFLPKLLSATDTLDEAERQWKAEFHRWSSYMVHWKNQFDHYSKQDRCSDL

Cholinesterase = Cholinesterase (Homo sapiens, UniProt P06276); experiment: Inhibition of human serum BChE using butyrylthiocholine iodide as substrate by visible spectrophotometry
Cholinesterase, sequence (P06276 whole entry): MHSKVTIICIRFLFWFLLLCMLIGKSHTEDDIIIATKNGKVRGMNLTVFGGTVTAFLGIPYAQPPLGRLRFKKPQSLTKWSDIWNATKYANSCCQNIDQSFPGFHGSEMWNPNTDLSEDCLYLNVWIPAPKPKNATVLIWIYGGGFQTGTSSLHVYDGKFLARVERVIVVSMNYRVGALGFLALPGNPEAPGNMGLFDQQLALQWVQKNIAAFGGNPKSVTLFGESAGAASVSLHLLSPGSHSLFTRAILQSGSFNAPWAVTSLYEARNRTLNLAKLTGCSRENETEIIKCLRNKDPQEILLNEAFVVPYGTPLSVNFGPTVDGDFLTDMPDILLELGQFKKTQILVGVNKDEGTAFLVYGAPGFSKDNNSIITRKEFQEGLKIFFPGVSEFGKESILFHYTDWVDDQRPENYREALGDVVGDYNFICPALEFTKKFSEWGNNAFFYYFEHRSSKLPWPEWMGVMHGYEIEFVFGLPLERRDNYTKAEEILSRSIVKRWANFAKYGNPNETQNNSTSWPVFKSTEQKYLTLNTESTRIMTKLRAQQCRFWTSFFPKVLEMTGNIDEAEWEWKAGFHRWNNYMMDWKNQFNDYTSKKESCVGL

Row | SMILES | IC50 (Acetylcholinesterase) [µM] | IC50 (Cholinesterase) [µM]
1 | C[C@@]12CC[C@@H]3[C@@](CC[C@H]4[C@@]3(C)CCC[C@@]4(C)C(=O)OCC[N+](C)(C)CCCCCCCCCC[N+](C)(C)CCOC(=O)[C@]3(C)CCC[C@@]4(C)[C@@H]5CC[C@@]6(C)C[C@]5(CC[C@@H]43)CC6=O)(CC1=O)C2 | 88 | 65
2 | C[C@@]12CC[C@@H]3[C@@](CC[C@H]4[C@@]3(C)CCC[C@@]4(C)C(=O)OCC[N+](C)(C)C)(CC1=O)C2 | 150 | 30
3 | C[C@@]12CC[C@@H]3[C@]4(CC[C@H]5[C@@]3(C)CCC[C@@]5(C)C(=O)OCC[N+](C)(C)CCCCCCCCC[N+](C)(C)CCOC(=O)[C@]3(C)CCC[C@@]5(C)[C@@H]6CC[C@@]7(C)C[C@]6(CC[C@@H]53)C[C@H]7OC(=O)CCCCCCCCC(=O)O[C@@H]1C4)C2 | 5 | 60
4 | C[C@H]1C[C@@]23CC[C@H]4[C@@](C)(CCC[C@@]4(C)C(=O)OCC[N+](C)(C)Cc4ccccc4)[C@@H]2CC[C@]1(Cl)C3 | 9 | 1.6
5 | C[C@@]12CC[C@@H]3[C@@](CC[C@H]4[C@@]3(C)CCC[C@@]4(C)C(=O)OCC[N+](C)(C)CCCCCCCCCCCC[N+](C)(C)CCOC(=O)[C@]3(C)CCC[C@@]4(C)[C@@H]5CC[C@@]6(C)C[C@]5(CC[C@@H]43)CC6=O)(CC1=O)C2 | 2.2 | 10
6 | C[C@H]1C[C@@]23CC[C@H]4[C@@](C)(CCC[C@@]4(C)C(=O)OCC[N+](C)(C)C)[C@@H]2CC[C@]1(Cl)C3 | 34 | 4.2
7 | CC[N+](CC)(CC)CCOCCOCCOC(=O)[C@]1(C)CCC[C@@]2(C)[C@@H]3CC[C@@]4(C)C[C@]3(CC[C@@H]21)CC4=O | 80 | > 1000
8 | C[C@@]12CC[C@@H]3[C@@](CC[C@H]4[C@@]3(C)CCC[C@@]4(C)C(=O)OCC[N+](C)(C)Cc3ccccc3)(CC1=O)C2 | 30 | 6.7
